One block for each compound: values may come before it. Calls of active or inactive are those of the source.
Columns and labels:
[1] = molecular target: FAD-linked sulfhydryl oxidase ALR (Homo sapiens, UniProt P55789); experiment: inhibitors of human ALR sulfhydryl oxidase, dose response, biochemical, H2O2 detection, luminescence, cherry-pick (AID 493248)
[2] = molecular target: T1, Methionyl-tRNA synthetase, putative (Trypanosoma brucei brucei, UniProt Q38C91); assay type: functional, Trypanosoma brucei brucei strain 927/4 GUTat10.1
T1 sequence (Q38C91 whole entry): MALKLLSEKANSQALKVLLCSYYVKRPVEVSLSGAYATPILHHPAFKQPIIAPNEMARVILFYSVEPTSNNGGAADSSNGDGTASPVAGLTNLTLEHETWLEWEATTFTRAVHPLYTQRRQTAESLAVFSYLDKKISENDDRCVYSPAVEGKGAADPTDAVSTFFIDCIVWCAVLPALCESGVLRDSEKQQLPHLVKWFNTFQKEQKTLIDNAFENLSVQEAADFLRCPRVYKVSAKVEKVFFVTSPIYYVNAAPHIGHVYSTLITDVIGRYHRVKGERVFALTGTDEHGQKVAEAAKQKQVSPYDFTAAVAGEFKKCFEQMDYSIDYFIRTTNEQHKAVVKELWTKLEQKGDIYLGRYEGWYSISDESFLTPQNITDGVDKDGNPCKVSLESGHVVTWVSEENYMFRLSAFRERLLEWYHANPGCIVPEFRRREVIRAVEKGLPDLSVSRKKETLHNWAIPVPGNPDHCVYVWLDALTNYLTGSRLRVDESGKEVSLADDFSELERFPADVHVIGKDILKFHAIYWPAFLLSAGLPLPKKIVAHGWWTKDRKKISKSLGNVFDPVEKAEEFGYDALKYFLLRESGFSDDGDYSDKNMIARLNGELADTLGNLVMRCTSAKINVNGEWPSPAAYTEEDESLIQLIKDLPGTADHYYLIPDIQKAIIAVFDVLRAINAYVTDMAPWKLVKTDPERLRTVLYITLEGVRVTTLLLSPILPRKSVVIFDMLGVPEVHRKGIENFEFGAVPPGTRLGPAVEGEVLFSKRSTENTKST

[3] = Counterscreen for inhibitors of Trypanosoma brucei methionyl tRNA synthetase (MetRS): Luminescence-based cell-based high throughput dose response assay to identify compounds that are cytotoxic to Jurkat human T lymphocyte cells.; assay type: functional
[4] = molecular target: T1, Methionyl-tRNA synthetase, putative; assay type: functional, Trypanosoma brucei brucei strain 927/4 GUTat10.1; remark: listed apart in the source
[5] = Late stage counterscreen for inhibitors of Trypanosoma brucei methionyl tRNA synthetase (MetRS): Luminescence-based cell-based high throughput dose response assay to identify compounds that are cytotoxic to Jurkat human T lymphocyte cells.; assay type: functional
[6] = molecular target: T2, Rac GTPase-activating protein 1 (Homo sapiens, UniProt Q9H0H5); experiment: MgcRacGAP GTPase-activating activity inhibitors, confirmation, biochemical, ADP Hunter fluorescence, primary and confirmatory (AID 624330); assay type: functional
T2 sequence (Q9H0H5 whole entry): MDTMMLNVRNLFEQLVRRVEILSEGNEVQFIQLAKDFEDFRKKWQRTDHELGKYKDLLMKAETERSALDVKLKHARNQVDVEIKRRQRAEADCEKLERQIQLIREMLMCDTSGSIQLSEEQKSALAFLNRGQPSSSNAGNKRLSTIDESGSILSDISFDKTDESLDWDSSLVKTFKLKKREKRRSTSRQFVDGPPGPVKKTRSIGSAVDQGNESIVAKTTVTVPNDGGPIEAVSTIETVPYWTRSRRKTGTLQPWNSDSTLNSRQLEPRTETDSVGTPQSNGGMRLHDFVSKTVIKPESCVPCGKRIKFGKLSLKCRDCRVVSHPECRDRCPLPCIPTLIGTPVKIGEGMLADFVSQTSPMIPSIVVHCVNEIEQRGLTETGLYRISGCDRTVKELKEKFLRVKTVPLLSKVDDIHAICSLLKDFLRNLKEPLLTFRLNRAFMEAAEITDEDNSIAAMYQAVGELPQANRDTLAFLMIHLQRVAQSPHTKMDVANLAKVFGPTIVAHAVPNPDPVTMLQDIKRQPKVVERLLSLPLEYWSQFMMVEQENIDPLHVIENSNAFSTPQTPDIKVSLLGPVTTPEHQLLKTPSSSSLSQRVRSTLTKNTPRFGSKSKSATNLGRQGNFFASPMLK

fMet-Leu-Phe receptor = fMet-Leu-Phe receptor (Homo sapiens, UniProt P21462); experiment: FPR ligands, dose response (AID 519); assay type: functional
[7] = molecular target: Endoplasmic reticulum aminopeptidase 1 (Homo sapiens, UniProt Q9NZ08); experiment: ERAP1 aminopeptidase inhibitors, dose response, biochemical, cherry-pick, set 2, plate reader (AID 743314)
Paired box protein Pax-8 = Paired box protein Pax-8 (Homo sapiens, UniProt Q06710); experiment: inhibitors of PAX8-driven TPO luciferase reporter, dose response, RMG-I cells, cherry-pick (AID 687027); assay type: functional, cell-based;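 further: luciferase reporter driven by Pax8 target thyroperoxidase promoter measured by SteadyGlo luminescence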
[8] = IOSE-T80 ovarian epithelial cell cytotoxicity, dose response, cytotoxicity control for PAX8 inhibitor project, plate reader, dry powder samples (AID 743045); assay type: functional, cell-based
[9] = inhibitors of PGC1a acetylation in cells, dose response, cell-based, cherry-picked samples (AID 720514); assay type: functional;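 further: potency may reflect raised or lowered acetylation signal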
[10] = NIH:OVCAR-3 ovarian cancer cell cytotoxicity, dose response, PAX8 inhibitor project, plate reader, dry powder samples (AID 743044); assay type: functional, cell-based
[11] = IGROV1 ovarian cancer cell cytotoxicity, dose response, PAX8 inhibitor project, plate reader, dry powder samples (AID 743043); assay type: functional, cell-based; conditions: IGROV-1
[12] = non-specific cell cytotoxicity, dose response, cytotoxicity control for PAX8 inhibitor project, plate reader, dry powder samples (AID 743021); assay type: functional, cell-based
[13] = HEK293T cell cytotoxicity, dose response, cytotoxicity control, CellTiter-Glo luminescence, dry powder, set 6 (AID 651949); assay type: functional, cell-based; conditions: HEK293

FAD-linked sulfhydryl oxidase ALR, sequence (P55789 whole entry): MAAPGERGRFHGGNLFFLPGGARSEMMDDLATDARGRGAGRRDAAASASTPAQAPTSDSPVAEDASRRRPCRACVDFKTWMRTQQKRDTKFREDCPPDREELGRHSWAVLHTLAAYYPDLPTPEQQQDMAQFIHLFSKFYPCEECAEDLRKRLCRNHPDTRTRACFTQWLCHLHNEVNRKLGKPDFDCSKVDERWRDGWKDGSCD
Paired box protein Pax-8, sequence (Q06710 whole entry): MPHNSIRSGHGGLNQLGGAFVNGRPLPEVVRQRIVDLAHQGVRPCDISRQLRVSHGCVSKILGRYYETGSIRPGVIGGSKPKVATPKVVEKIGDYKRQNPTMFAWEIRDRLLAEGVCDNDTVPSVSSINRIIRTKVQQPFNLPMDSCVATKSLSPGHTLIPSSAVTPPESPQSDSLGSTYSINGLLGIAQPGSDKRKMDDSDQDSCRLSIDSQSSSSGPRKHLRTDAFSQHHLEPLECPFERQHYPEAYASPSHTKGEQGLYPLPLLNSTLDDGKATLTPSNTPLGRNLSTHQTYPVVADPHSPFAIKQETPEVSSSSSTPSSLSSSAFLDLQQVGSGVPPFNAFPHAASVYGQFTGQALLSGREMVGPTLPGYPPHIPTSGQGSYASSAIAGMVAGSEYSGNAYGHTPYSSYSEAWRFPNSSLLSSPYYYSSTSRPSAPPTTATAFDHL
Endoplasmic reticulum aminopeptidase 1, sequence (Q9NZ08 whole entry): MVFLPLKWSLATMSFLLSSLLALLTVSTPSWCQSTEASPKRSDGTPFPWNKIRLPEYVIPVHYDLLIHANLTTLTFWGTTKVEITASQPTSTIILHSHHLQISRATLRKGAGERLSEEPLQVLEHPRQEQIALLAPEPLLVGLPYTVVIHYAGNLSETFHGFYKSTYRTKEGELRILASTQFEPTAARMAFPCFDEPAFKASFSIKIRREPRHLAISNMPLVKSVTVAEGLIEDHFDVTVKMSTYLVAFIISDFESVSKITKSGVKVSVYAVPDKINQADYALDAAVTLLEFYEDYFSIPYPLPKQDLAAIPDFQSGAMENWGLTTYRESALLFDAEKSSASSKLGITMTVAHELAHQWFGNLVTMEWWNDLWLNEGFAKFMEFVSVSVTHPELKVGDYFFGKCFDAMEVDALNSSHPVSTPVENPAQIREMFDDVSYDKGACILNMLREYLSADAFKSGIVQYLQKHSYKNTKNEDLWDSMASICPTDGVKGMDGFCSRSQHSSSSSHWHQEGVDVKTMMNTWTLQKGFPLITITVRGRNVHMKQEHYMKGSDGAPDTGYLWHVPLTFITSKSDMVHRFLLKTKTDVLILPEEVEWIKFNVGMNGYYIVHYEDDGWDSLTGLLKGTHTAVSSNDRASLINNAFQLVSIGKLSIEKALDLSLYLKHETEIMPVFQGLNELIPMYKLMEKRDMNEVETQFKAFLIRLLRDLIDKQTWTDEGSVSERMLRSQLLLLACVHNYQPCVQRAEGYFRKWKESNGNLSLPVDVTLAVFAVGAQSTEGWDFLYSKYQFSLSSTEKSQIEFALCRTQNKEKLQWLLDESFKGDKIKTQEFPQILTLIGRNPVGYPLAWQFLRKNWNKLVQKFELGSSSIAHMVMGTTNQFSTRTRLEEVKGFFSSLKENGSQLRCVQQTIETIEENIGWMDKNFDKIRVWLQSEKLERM
fMet-Leu-Phe receptor, sequence (P21462 whole entry): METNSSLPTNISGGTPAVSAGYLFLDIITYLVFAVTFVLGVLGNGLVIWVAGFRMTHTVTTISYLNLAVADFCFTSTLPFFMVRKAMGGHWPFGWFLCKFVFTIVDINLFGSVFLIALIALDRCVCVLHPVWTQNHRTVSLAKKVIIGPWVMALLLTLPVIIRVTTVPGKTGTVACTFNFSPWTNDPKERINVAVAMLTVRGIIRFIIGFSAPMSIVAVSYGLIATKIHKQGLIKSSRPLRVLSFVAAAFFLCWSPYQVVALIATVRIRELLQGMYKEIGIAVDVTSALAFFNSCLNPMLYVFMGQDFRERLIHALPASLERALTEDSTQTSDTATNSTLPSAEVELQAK

Compound: Oc1c(Cl)cc(Cl)cc1CNc1nc2ccccc2[nH]1
AC50 [1]: 0.587 µM (active)
IC50 [2]: 0.488 µM (active)
IC50 [3]: 83.3 µM (inactive)
IC50 [4]: 0.661 µM (active)
IC50 [5]: > 83.3 µM (inactive)

IC50 [6]: 88.6 µM (active)
Ki (fMet-Leu-Phe receptor): > 66.7 µM (inactive)
Compound: CC(C)(C)CC(=O)Nc1ccc(Nc2ccccc2)cc1

AC50 [7]: 7.3 µM (active)
Compound: CCc1cc(=O)oc2c(CN3CCN(C)CC3)c(O)ccc12

Compound: O=C(Nc1cccc(F)c1)N1C[C@@H]2N[C@H](C1)[C@@H]2c1ccc(-c2ccc(F)cc2)cc1
AC50 (Paired box protein Pax-8): 19.5 µM (active)
AC50 [8]: 34.3 µM (active)
AC50 [9]: 18.5 µM (active)
AC50 [10]: 17.7 µM (active)
AC50 [11]: 22.4 µM (active)
AC50 [12]: 65.7 µM (active)

Compound: c1ccc(CNCCSc2nnc(-c3ccccc3)o2)cc1
AC50 [13]: > 52 µM (inactive)

— ChEMBL document CHEMBL1201862, “PubChem BioAssay data set” (2004)
